Measured values as given in patent US8222008B2, “Methods and compositions for treating cancer” (The Administrators of The Tulane Educational Fund, priority 2003, dated 2012).
Values joined by “and” are separate entries in the source; they are usually repeats but may differ in a detail not shown here. Equal entries are not always repeated.

Legend:
normal fibroblasts [1] = assay: Apoptosis after lysosomal cystine loading, CaspACE assay (FIG. 1); assay type: cell-based, human; details: 0.5 mM CDME 1 hour pretreatment, then TNF-a or UV, 16 hours in CDME-containing medium; control rate 7.2+/−1.3%
Experimental: 1. The CaspACE Assay • CaspACE (Promega) is an FITC-conjugated cell-permeable form of the pan-caspase inhibitor zVAD-Fmk, which binds to activated caspase(s). Cells were incubated in FITC-VAD-Fmk-containing medium (10 μM for 30 minutes at 37° C.), washed, and then fixed in 10% buffered formalin (30 minutes at room temperature) before analysis. The cells were visually enumerated by fluorescence microscopy, scoring a minimum of five fields (250 to 300 cells) for fluorescence in triplicate followed by counting all cells in the same field by light microscopy, with a minimum of 750 cells scored per condition. The apoptosis rate is the total number of cells that fluoresce divided by the total cells in the field.
(§1) Normal fibroblast lysosomes were loaded with cystine by the addition of 0.5 mM cystine dimethylester (CDME, Sigma) to normal culture medium for 1 hour before treatment (Pisoni, R L, et al, 1992 Somat. Cell. Mol. Genet., 18:1-6). The cells were treated with apoptotic triggers, leaving CDME in the medium to prevent lysosomal cystine loss, and then analyzed for apoptosis.
(§2) The lysosomal cystine content of normal fibroblasts was also altered as follows. Normal fibroblasts also at passage 7-13 were pretreated with 0.5 mM CDME for 1 hour, increasing the cystine content of their lysosomes to the cystinotic range (0.47 to 1.95 nmol of cystine per mg of protein). […]

kidney of black mice = assay: Kidney cystine concentration after CDME injection (CBP and BCA assays); assay type: in vivo, mouse
Experimental: (§3) Intracellular lysosomal free cystine was determined using a cystine binding protein (CBP) assay (Oshima et al, 1974 J. Biol. Chem., 249:6033-6039). CBP was procured from Riverside Scientific. The assay has a sensitivity of 0.1 μM. Total cell protein was determined by a modification of the Lowry method (Lowry O. et al 1951 J. Biol. Chem., 193:265-275). Statistical analyses were performed using paired t test for means with SSPS for Windows. Results are mean+/−1.0 SD (FIG. 3).
(§4) CDME was evaluated in mice for cystine generation in response to varying doses as follows: A stock solution of CDME in PBS was prepared having a concentrations of 1.8 g CDME/500 μL PBS. The stock solution was diluted to generate solutions for administration. 500 μL of diluted solutions were injected intraperitoneally into black mice (body mass ˜0.03 kg). All injections were performed in duplicate.
(§5) Following administration of the solutions of Table 6, the endogenous cystine concentrations in two organs (kidney and liver) were examined for the 6 mice, i.e., the CDME-injected mice as well as black, heterozygous, and wild-type control mice. The analysis was performed using the cystine binding protein CBP assay of Example 1 and the Bicinchoninic Acid BCA assay (Pierce Biotechnology) for total protein concentration.

normal fibroblasts [2] = assay: Lysosomal cystine content, cystine binding protein assay; assay type: cell-based, human
Experimental: as §3, §1, §2
In another experiment, the cystine content was decreased in cystinotic cells from 2.3 to 0.5 nmols cystine/10^6 cells by pretreatment with MEA before incubation in cystine-free and serum-free Ham F12 medium. […] Cells were stained with CaspACE and analyzed. […]

black mice = assay: Toxicity study of CDME in mice; assay type: in vivo, mouse; details: intraperitoneal injection, 500 μL in PBS
Experimental: as §4
Mice given effective dosages of 5,000 mg CDME/kg body mass or higher died. […] The CDME-injected mice contained close to 100-fold increases in intralysosomal cystine.

liver of black mice = assay: Liver cystine concentration after CDME injection (CBP and BCA assays); assay type: in vivo, mouse
Experimental: as §3, §4, §5

GM005399 cells = assay: Apoptosis on serum withdrawal, CaspACE; assay type: cell-based, human; details: serum withdrawal and CDME
Experimental: Induction of apoptosis and assays for its detection were performed using commercially available reagents. Normal and cystinotic fibroblasts were matched for passage number (±3) and cell density, and then exposed to an apoptotic trigger. One apoptotic trigger used was TNF-a (30 ng/mL) with actinomycin D (2.5 μg/mL) for 16 hours. Another trigger was anti-Fas antibody (500 ng/mL) with actinomycin D (2.5 μg/mL) for 16 hours. A third trigger to induce apoptosis in the cells was Ultraviolet B light (60 mJ). See, e.g., previously described protocols of Aggarwal B B, 1992 Immunol. Ser., 56:61-78; Higuchi M. et al, 1995 J. Immunol. Meth., 178:173-181; Itoh N, et al, 1991 Cell, 66:233-243; Itoh N. et al, 1993 J. Biol. Chem., 268:10932-10937. Serum withdrawal was also used as a apoptotic stimulus (Lieberthal W, et al, 1998 Am. J. Physiol. 275:F691-F702; Verzola D. et al, 2001 Exp Nephrol., 9:366-371; Iglesias J. et al, 1999 Am. J. Physiol. 277:F711-F712; Kulkarni G V, et al, 1994 J. Cell Sci., 107:1169-1179), in which case the cells were incubated in F12 medium without serum for 24 hours and then analyzed for apoptosis.
1. […] The cells were visually enumerated by fluorescence microscopy, scoring a minimum of five fields (250 to 300 cells) for fluorescence in triplicate followed by counting all cells in the same field by light microscopy, with a minimum of 750 cells scored per condition. […]

[3] = 10,000 mg CDME/kg intraperitoneally, Mouse #3

`COC(=O)[C@@H](N)CSSC[C@H](N)C(=O)OC` [CDME, cystine dimethyl ester] was tested, and the “apoptotic rate after exposure to CDME” value (normal fibroblasts [1]) was 18.7+/−5.4%, the “Kidney Cystine Concentration” value (kidney of black mice; [3]) was 97 nmol cystine/mg protein and the “increase in intralysosomal cystine” value (kidney of black mice; CDME-injected mice versus controls) was ~100 fold. For the same molecule, the “cystine content after treatment with CDME” value (normal fibroblasts [2]; increased from 0.4, before serum withdrawal) was 1.3 nmols cystine/10^6 cells, the “cystine content after pre-exposure to CDME” value (normal fibroblasts [2]; normal content <0.1 nmol/mg protein, UV light experiment) was 1.95 nmol/mg protein and the “effective dosage at which mice died” value (black mice) was ≥ 5,000 mg CDME/kg body mass. The “Liver Cystine Concentration” value (liver of black mice; 5,000 mg CDME/kg intraperitoneally, Mouse #1 and #2) was 230 nmol cystine/mg protein and 150 nmol cystine/mg protein, the “Liver Cystine Concentration” value (liver of black mice; [3]) was 6.7 nmol cystine/mg protein and the “% Apoptosis” value (GM005399 cells) was 37.3%.
